# US20200093814A1, “COMBINATION THERAPY WITH AMIDINE SUBSTITUTED BETA-LACTAM COMPOUNDS AND BETA-LACTAMASE INHIBITORS FOR INFECTIONS WITH ANTIBIOTIC RESISTANT BACTERIAL STRAINS” (AiCuris GmbH & Co. KG, priority 2016, published 2020)
# Columns and labels:
# Assay type in all cases: cell-based
# Details in all cases: BLI where combined at 4 μg/mL
# [1] = tested on: E. cloacae 58 (SHV-12, de-repressed AmpC)
# E. coli 121 (CTX-M) = assay: MIC determination, broth microdilution (CLSI)
# Source text: (§1) While the compounds of this invention were serially diluted as described above, a constant concentration of the β-lactamase inhibitor of […] was used.
# [2] = tested on: E. coli J62-TEM-3 transconjugant (TEM-3); assay: MIC determination, broth microdilution (CLSI)
# Source text: as §1
# K. pneumoniae 79 (CTX-M) = assay: MIC determination, broth microdilution (CLSI)
# Source text: as §1
# K. pneumoniae 68 (SHV-5) = assay: MIC determination, broth microdilution (CLSI)
# Source text: as §1
# [3] = tested on: K. pneumoniae 16/10 (OXA-48, CTX-M-15); assay: MIC determination, broth microdilution (CLSI)
# Source text: as §1
# [4] = tested on: E. coli 17 (CTX-M, CMY-2); assay: MIC determination, broth microdilution (CLSI)
# Source text: as §1
# E. coli 10 (TEM-20) = assay: MIC determination, broth microdilution (CLSI)
# Source text: as §1
# [5] = tested on: E. coli DSM 22315 (VEB-1); assay: MIC determination, broth microdilution (CLSI)
# Source text: as §1
# E. coli 72 (CTX-M) = assay: MIC determination, broth microdilution (CLSI)
# Source text: as §1
# E. coli 128 (SHV-2a) = assay: MIC determination, broth microdilution (CLSI)
# Source text: as §1
# [6] = tested on: K. pneumoniae NRZ-15601 (OXA-48, SHV-12); assay: MIC determination, broth microdilution (CLSI)
# Source text: as §1
# [7] = tested on: K. pneumoniae NCTC 13440 (VIM-1, SHV-12); assay: MIC determination, broth microdilution (CLSI)
# Source text: as §1
Molecule,MIC [1],MIC (E. coli 121 (CTX-M)),MIC [2],MIC (K. pneumoniae 79 (CTX-M)),MIC (K. pneumoniae 68 (SHV-5)),MIC [3],MIC [4],MIC (E. coli 10 (TEM-20)),MIC [5],MIC (E. coli 72 (CTX-M)),MIC (E. coli 128 (SHV-2a)),MIC [6],MIC [7]
CC(C)(O/N=C(\C(=O)N[C@@H]1C(=O)N2C(C(=O)[O-])=C(C[n+]3ccccc3)CS[C@H]12)c1csc(N)n1)C(=O)O [ceftazidime],128 µg/mL,32 µg/mL,16 µg/mL,16 µg/mL,64 µg/mL,128 µg/mL,128 µg/mL,32 µg/mL,128 µg/mL,32 µg/mL,16 µg/mL,64 µg/mL,
aztreonam,,64 µg/mL,8 µg/mL,32 µg/mL,128 µg/mL,,128 µg/mL,64 µg/mL,64 µg/mL,128 µg/mL,8 µg/mL,,128 µg/mL
